Data reported in patent US20210187014A1 (The Regents of the University of Colorado, a body corporate, priority 2018, published 2021).
“Also recorded” adds a separate entry of the source.

How the values were obtained:
[1] = Ent stability by CAS liquid assay; format: physicochemical
Description: FIG. 25. […] Degradation is indicated by increased absorbance. […] Degradation is indicated by increased relative fluorescence. […] For all tests, dilutions were kept at room temp and exposed to light. Error is standard deviation of the mean.

HEK293 cells = assay: Cellular iron level by Calcein AM fluorescence in HEK293 cells +/- iron chelator DFO; format: cell-based, human
Experimental: Here, a similar test was done in human HEK293 cells. […] The present inventors then created a low-iron condition by adding an iron chelator, Deferoxamine (DFO) to the medium (FIG. 18A). […] The assay was also performed using mouse intestinal epithelial (MODE-K) cells.

C. elegans = assay: Iron level in live worms by calcein-AM staining (and pftn-2::GFP reporter); format: in vivo
Experimental: The present inventors employed the commonly used fluorescent cell-permeable dye, calcein AM, of which emission is quenched by iron binding, and applied it to live worms as previously described to estimate the overall iron level in the host.
Live imaging of iron in worms was done as previously described (James et al., 2015). Briefly, worms were collected at different culture conditions, then co-cultured in M9 with 0.05 ug/ML calcein-AM (Invitrogen) for 1 h, then washed 3 times in 1 ml M9. Samples were then mounted for fluorescence microscopy.
For calcein-AM staining, the original images taken with GFP channel were used to measure the intensity. The value of staining intensity was determined by subtracting the background intensity from the calcein-AM stained intestine.

germ-free (GF) mice = assay: Growth of germ-free mice colonized with entF- E. coli, Ent in drinking water; format: in vivo; details: GF female mice colonized with entF- E. coli, drinking water pH 5.5
Experimental: As generally shown in FIG. 23, (A) Five-week old female germ-free (GF) mice were colonized with a single non-pathogenic E. coli (K12) strain, wild type or entF-(Ent-deficient E. coli). Mouse growth (weight gain) was measured for the following 4 weeks. […] Iron level was measured.

mice = assay: Growth of mice fed control (iron-adequate) diet, Ent in drinking water; format: in vivo; details: male mice, drinking water pH 5.5
Description: The present inventors treated 4.5-week male mice with the iron-adequate control diet (CD) described above, the matched control for the iron-deficient diet (IDD). As shown above in FIGS. 20 and 21, mice fed this diet had relative normal hemoglobin and iron levels. […] This experiment was incomplete because the hemoglobin and iron levels were not measured, which will be repeated.

HEK293T cells = assay: Mitochondrial iron level by fluorescent indicator RPA; format: cell-based, human
Description: (§1) Moreover, using siRNA knockdown (FIG. 13A), the present inventors observed that this Ent-mediated increase depended on ATP5A1 (FIG. 6E, F) in a similar manner as that in the assays for C. elegans (FIG. 5A, D). The present inventors also measured the mitochondrial iron level in cells by using the fluorescent mitochondrial iron indicator, RPA, to which iron binding quenches its fluorescence. […] The relatively smaller changes seen for cultured cells, compared to the difference in worms fed heat-killed food (FIG. 2), may potentially be due to the higher base iron level under the cell culturing condition.
Mitochondrial iron measurement in mammalian cells. The mitochondrial iron pools were determined as described (Mena et al., 2015). Briefly, cells were loaded for 20 min at 37 ° C. with 2 uM of the mitochondrial iron chelator rhodamine B-[(1,10-phenanthrolin-5-yl) aminocarbonyl]benzyl ester (RPA). After washing, the cells were imaged by fluorescence microscopy.

ATP5A1 = target: T1, ATP5A1 (Homo sapiens, UniProt P25705); assay: 55FeCl3 +/- Ent in HEK293T cell lysates, ATP5A1 immunoprecipitation; format: binding
T1 construct: His
T1 sequence (P25705 44-553): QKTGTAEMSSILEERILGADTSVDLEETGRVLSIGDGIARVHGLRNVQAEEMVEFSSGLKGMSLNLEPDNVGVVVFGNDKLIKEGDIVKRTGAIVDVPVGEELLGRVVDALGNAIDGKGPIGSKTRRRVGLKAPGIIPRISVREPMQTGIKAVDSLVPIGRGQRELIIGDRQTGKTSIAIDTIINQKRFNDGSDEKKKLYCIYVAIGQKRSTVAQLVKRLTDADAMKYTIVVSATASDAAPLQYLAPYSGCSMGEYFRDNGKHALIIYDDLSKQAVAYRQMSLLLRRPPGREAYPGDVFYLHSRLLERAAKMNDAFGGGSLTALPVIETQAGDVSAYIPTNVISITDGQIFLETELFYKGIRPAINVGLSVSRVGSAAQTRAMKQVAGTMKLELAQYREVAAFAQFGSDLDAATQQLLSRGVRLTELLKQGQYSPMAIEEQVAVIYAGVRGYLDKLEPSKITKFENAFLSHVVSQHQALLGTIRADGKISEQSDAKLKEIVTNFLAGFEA

ATP-1 = target: T2, ATP-1 (Caenorhabditis elegans, UniProt Q9XXK1); assay: Iron-binding assay: 55FeCl3 +/- siderophore in worm lysates, ATP-1 immunoprecipitation; set-up: species or system C. elegans
T2 construct: His; made in house; host or cells: E. coli (given only for the three ATP-1 segments)
T2 sequence (Q9XXK1 whole entry): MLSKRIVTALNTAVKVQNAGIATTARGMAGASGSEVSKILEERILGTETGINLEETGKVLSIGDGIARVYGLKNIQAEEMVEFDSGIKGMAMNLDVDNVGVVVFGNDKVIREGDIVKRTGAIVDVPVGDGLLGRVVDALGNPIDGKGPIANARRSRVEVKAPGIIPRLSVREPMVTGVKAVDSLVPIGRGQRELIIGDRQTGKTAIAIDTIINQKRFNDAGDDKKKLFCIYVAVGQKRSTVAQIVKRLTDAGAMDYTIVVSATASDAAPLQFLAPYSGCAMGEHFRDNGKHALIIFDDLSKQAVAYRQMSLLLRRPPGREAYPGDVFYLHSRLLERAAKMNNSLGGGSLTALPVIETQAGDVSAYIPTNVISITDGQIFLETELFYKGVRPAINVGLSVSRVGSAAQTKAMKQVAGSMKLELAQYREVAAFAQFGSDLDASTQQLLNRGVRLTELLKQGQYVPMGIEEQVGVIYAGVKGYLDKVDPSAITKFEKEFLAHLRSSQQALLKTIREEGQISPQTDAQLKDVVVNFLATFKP
Experimental: The present inventors added radiolabeled iron (55FeCl3) to worm lysates and then immunoprecipitated ATP-1.
In vitro binding assay. (a) Ent-biotin pull-down of total proteins: Ent-biotin and streptavidin beads were used to pull down interacting proteins from worm total protein extracts (same method as that in initial screen for Ent-binding proteins). Western blots were performed to detect ATP-1 (Thermo Fisher 43-9800). […] The assay was then quenched with a standard 5×SDS-PAGE_loading buffer (reducing). Proteins were separated by SDS-PAGE and transferred to_nitrocellulose membranes. The membranes were blocked for 1 h with 5% BSA in Trisbuffered saline (TBS) with 0.1% Tween 20 (TBST) at room temperature, followed by incubation for 1 h with horseradish peroxidase streptavidin (Cell Signaling_Technology,3999S) in TBST. After four washes with changes every 15 min in TBST, the_biotinylated proteins were visualized by enhanced chemiluminescence (GE Healthcare,_RPN2232). […] After IP, the amount of 55Fe was determined by liquid scintillation.

[2] = system: mitochondria from HEK293T cells; assay: In vitro mitochondrial iron uptake assay, mitochondria from HEK293T cells; format: biochemical, human
Description: as §1
Mitochondrial iron uptake assays. For the in vitro mitochondrial iron uptake assay, the present inventors modified a published procedure for analysis of mammalian cells (Devireddy et al., 2010). […] The samples were incubated for 4 hours at room temperature, and the amount of 55Fe in lysed mitochondria was determined by liquid scintillation.

## O=C(N[C@H]1COC(=O)[C@@H](NC(=O)c2cccc(O)c2O)COC(=O)[C@@H](NC(=O)c2cccc(O)c2O)COC1=O)c1cccc(O)c1O [Ent, enterobactin]
[1]; 100% DMSO, room temp, light
  stability: little change during the assay period
[1]; H2O pH 6.5/7
  stability in H2O at varying pH: more stable than the other dilutions in acidic and basic H2O
[1]; H20 (pH 5.5) with 10% DMSO, room temp, light
  time of rapid degradation: ≤ 60 min
[1]; pH 5.5
  stability in deionized water: highly unstable
HEK293 cells; medium with DFO, Ent 1.5 uM
  decrease in Calcein AM fluorescence with Ent addition: 45%
  iron level recovery: mostly recovered; also recorded: largely recovered
HEK293 cells; standard culture medium
  increase of cellular iron uptake: ~33%
C. elegans; atp-1 RNAi, entF- mutant bacteria
  iron level gain with Ent supplementation: eliminated the iron level gain
C. elegans; growth-arrested worms fed heat-killed E. coli only
  iron level in worms (calcein AM and pftn-2::GFP): such a defect was suppressed
C. elegans; iron-deficient condition, worms treated with CaEDTA
  iron level and growth rate defects: both defects were suppressed
C. elegans; worms fed entA- or entF- mutant bacteria with heat-killed E. coli
  iron level in worms (calcein AM fluorescence): recovered
C. elegans; worms treated with CaEDTA
  amount of FeCl3 (175 ug/ul) with equivalent effect on calcein-AM fluorescence decrease: 10 µL
  iron level increase attributed to Ent-mediated iron uptake: ≥ 10 fold
germ-free (GF) mice
  growth (weight gain): overcomes growth delay
mice
  growth rate (weight gain): increased growth rate
HEK293T cells
  mitochondrial iron level (RPA): increased the mitochondrial iron level
HEK293T cells; cells treated with ATP5A1 siRNA
  iron-boosting effect of Ent (RPA): not seen
ATP5A1
  level of 55Fe in ATP5A1-IP samples: increased
ATP-1; whole worm lysates
  increase in 55Fe associated with ATP-1-IP: > 10 fold
ATP-1; worm lysates
  binding of ATP-1 to 55Fe: dramatically increased
[2]
  iron level in mitochondria: prominently increased
